IC50 data for 33 compounds are collected here from US12479820B2, “Pyridin-3-yl derivatives” (Idorsia Pharmaceuticals Ltd, priority 2019, dated 2025).

For the experiment, the target named is T1, human LPA1 receptor (Homo sapiens, UniProt Q92633).
T1 construct: TEV protease site; Gal4-VP16 transcription factor; host or cells: Tango EDG2-bla U2OS cells
The experiment in a line: Beta-arrestin recruitment assay to determine IC50 values for human LPAR1. The experiment is classed as cell-based. The note with it: Tango EDG2-bla U2OS cells, antagonist assay, LPA 18:1 500 nM final. The method, boiled down: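 Tango EDG2-bla U2OS cells were preincubated 30 min at 37 °C with compound. They were then stimulated with 500 nM (final) LPA 18:1 for 16 h. β-Lactamase reporter read by LiveBLAzer FRET substrate (2 h) as the 460/530 nm ratio; IC50 from 4-parameter logistic fit.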
(Recruitment of arrestin is a read-out of receptor activation apart from second messengers.)

T1 sequence (Q92633 whole entry, the tested form may be a part): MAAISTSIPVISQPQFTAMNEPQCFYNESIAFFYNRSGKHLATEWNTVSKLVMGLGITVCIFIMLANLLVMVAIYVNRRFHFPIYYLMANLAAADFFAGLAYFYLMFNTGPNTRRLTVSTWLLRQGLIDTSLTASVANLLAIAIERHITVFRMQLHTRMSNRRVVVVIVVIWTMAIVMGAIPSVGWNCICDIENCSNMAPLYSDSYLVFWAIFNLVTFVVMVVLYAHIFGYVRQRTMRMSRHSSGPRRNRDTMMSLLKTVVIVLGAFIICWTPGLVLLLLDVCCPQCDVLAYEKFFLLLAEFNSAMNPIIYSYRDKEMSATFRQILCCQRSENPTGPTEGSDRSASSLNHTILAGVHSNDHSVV

By IC50 is commonly meant the point on the concentration scale where inhibition reaches its midpoint. On to `COc1cc(Cl)ncc1NC(=O)C1(c2ccccc2C(C)C)CCN(S(N)(=O)=O)CC1` [Example 21-8, N-(6-chloro-4-methoxypyridin-3-yl)-4-(2-isopropylphenyl)-1-sulfamoylpiperidine-4-carboxamide], for which the IC50 was found to be 16 nM.

With `COc1cc(Br)ncc1NC(=O)C1(c2ccccc2C(C)C)CN(S(N)(=O)=O)C1` [Example 21-9, N-(6-bromo-4-methoxypyridin-3-yl)-3-(2-isopropylphenyl)-1-sulfamoylazetidine-3-carboxamide], the IC50 is 2 nM.

As to `COc1cc(C)ncc1NC(=O)C1(c2ccccc2C(C)C)CN(S(N)(=O)=O)C1` [Example 21-10, 3-(2-isopropylphenyl)-N-(4-methoxy-6-methylpyridin-3-yl)-1-sulfamoylazetidine-3-carboxamide], the IC50 was 37 nM.

For the compound `COc1cc(C(F)(F)F)ncc1NC(=O)C1(c2ccccc2C(C)C)CN(S(N)(=O)=O)C1` [Example 21-11, 3-(2-isopropylphenyl)-N-(4-methoxy-6-(trifluoromethyl)pyridin-3-yl)-1-sulfamoylazetidine-3-carboxamide], the half-inhibitory concentration (IC50) worked out at 42 nM.

`CNS(=O)(=O)N1CC(C(=O)Nc2cnc(Cl)cc2OC)(c2ccccc2C(C)C)C1` [Example 21-12, N-(6-chloro-4-methoxypyridin-3-yl)-3-(2-isopropylphenyl)-1-(N-methylsulfamoyl)azetidine-3-carboxamide]: the half-maximal inhibitory concentration (IC50) was 19 nM.

Regarding `COc1cc(Cl)ncc1NC(=O)C1(c2ccccc2C(C)C)CN(S(=O)(=O)NC2CC2)C1` [Example 21-13, N-(6-chloro-4-methoxypyridin-3-yl)-1-(N-cyclopropylsulfamoyl)-3-(2-isopropylphenyl)azetidine-3-carboxamide], the half-inhibitory concentration (IC50) turned out to be 22 nM.

In the case of `COc1cc(Cl)ncc1NC(=O)C1(c2c(F)cccc2C(C)C)CN(S(N)(=O)=O)C1` [Example 21-14, N-(6-chloro-4-methoxypyridin-3-yl)-3-(2-fluoro-6-isopropylphenyl)-1-sulfamoylazetidine-3-carboxamide], the IC50 is 4 nM.

Consider `COc1cc(Cl)ncc1NC(=O)C1(c2cc(F)ccc2C(C)C)CN(S(N)(=O)=O)C1` [Example 21-15, N-(6-chloro-4-methoxypyridin-3-yl)-3-(5-fluoro-2-isopropylphenyl)-1-sulfamoylazetidine-3-carboxamide], for which the IC50 came to 5 nM.

Regarding `COc1cc(Cl)ncc1NC(=O)C1(c2ncccc2C(C)C)CN(S(N)(=O)=O)C1` [Example 21-16, N-(6-chloro-4-methoxypyridin-3-yl)-3-(3-isopropylpyridin-2-yl)-1-sulfamoylazetidine-3-carboxamide], the IC50 is 12 nM.

Take `COc1cc(Cl)ncc1NC(=O)C1(c2nc(F)ccc2C(C)C)CN(S(N)(=O)=O)C1` [Example 21-17, N-(6-chloro-4-methoxypyridin-3-yl)-3-(6-fluoro-3-isopropylpyridin-2-yl)-1-sulfamoylazetidine-3-carboxamide]: the IC50 was found to be 16 nM.

`COc1ccncc1NC(=O)C1(c2ccccc2C(C)C)CN(S(N)(=O)=O)C1` [Example 21-18, 3-(2-isopropylphenyl)-N-(4-methoxypyridin-3-yl)-1-sulfamoylazetidine-3-carboxamide]: the IC50 turned out to be 1560 nM.

Regarding `COc1cc(Cl)ncc1NC(=O)C1(c2ccccc2C2CCCC2)CN(S(N)(=O)=O)C1` [Example 21-19, N-(6-chloro-4-methoxypyridin-3-yl)-3-(2-cyclopentylphenyl)-1-sulfamoylazetidine-3-carboxamide], the IC50 was found to be 4 nM.

Turning to `COCCNS(=O)(=O)N1CC(C(=O)Nc2cnc(Cl)cc2OC)(c2ccccc2C(C)C)C1` [Example 21-20, N-(6-chloro-4-methoxypyridin-3-yl)-3-(2-isopropylphenyl)-1-(N-(2-methoxyethyl)sulfamoyl)azetidine-3-carboxamide], the IC50 came to 73 nM.

Take `COc1cc(Cl)ncc1NC(=O)C1(c2ccccc2C(C)C)CN(S(=O)(=O)NCCO)C1` [Example 21-21, N-(6-chloro-4-methoxypyridin-3-yl)-1-(N-(2-hydroxyethyl)sulfamoyl)-3-(2-isopropylphenyl)azetidine-3-carboxamide]: the IC50 is 56 nM.

As for `COc1cc(Cl)ncc1NC(=O)C1(c2ccccc2C(C)C)CN(C(N)=O)C1` [Example 22-1, N3-(6-chloro-4-methoxypyridin-3-yl)-3-(2-isopropylphenyl)azetidine-1,3-dicarboxamide], the IC50 stood at 22 nM.

In the case of `CNC(=O)N1CC(C(=O)Nc2cnc(Cl)cc2OC)(c2ccccc2C(C)C)C1` [Example 22-2, N3-(6-chloro-4-methoxypyridin-3-yl)-3-(2-isopropylphenyl)-N1-methylazetidine-1,3-dicarboxamide], the IC50 was 12 nM.

`CCNC(=O)N1CC(C(=O)Nc2cnc(Cl)cc2OC)(c2ccccc2C(C)C)C1` [Example 22-3, N3-(6-chloro-4-methoxypyridin-3-yl)-N1-ethyl-3-(2-isopropylphenyl)azetidine-1,3-dicarboxamide]: the concentration for half-maximal inhibition (IC50) is 6 nM.

Turning to `COc1cc(Cl)ncc1NC(=O)C1(c2ccccc2C(C)C)CN(C(=O)NC(C)C)C1` [Example 22-4, N3-(6-chloro-4-methoxypyridin-3-yl)-N1-isopropyl-3-(2-isopropylphenyl)azetidine-1,3-dicarboxamide], the IC50 was determined as 9 nM.

In the case of `COc1cc(Cl)ncc1NC(=O)C1(c2ccccc2C(C)C)CN(C(=O)NC2CC2)C1` [Example 22-5, N3-(6-chloro-4-methoxypyridin-3-yl)-N1-cyclopropyl-3-(2-isopropylphenyl)azetidine-1,3-dicarboxamide], the IC50 was determined as 5 nM.

Turning to `COC[C@H](C)Oc1cc(Cl)ncc1NC(=O)C1(c2ccccc2C(C)C)CN(C(=O)NC2CC2)C1` [Example 22-6, (S)-N3-(6-chloro-4-((1-methoxypropan-2-yl)oxy)pyridin-3-yl)-N1-cyclopropyl-3-(2-isopropylphenyl)azetidine-1,3-dicarboxamide], the IC50 was determined as 3 nM.

As for `COc1cc(Cl)ncc1NC(=O)C1(c2ncccc2C(C)C)CN(C(=O)NC2CC2)C1` [Example 22-7, N3-(6-chloro-4-methoxypyridin-3-yl)-N1-cyclopropyl-3-(3-isopropylpyridin-2-yl)azetidine-1,3-dicarboxamide], the half-maximal inhibitory concentration (IC50) turned out to be 18 nM.

Consider `C=C(C)C(=O)OCCNC(=O)N1CC(C(=O)Nc2cnc(Cl)cc2OC)(c2ccccc2C(C)C)C1` [Example 22-8, 2-(3-((6-chloro-4-methoxypyridin-3-yl)carbamoyl)-3-(2-isopropylphenyl)azetidine-1-carboxamido)ethyl methacrylate], for which the IC50 was found to be 12 nM.

`COCCNC(=O)N1CC(C(=O)Nc2cnc(Cl)cc2OC)(c2ccccc2C(C)C)C1` [Example 22-10, N3-(6-chloro-4-methoxypyridin-3-yl)-3-(2-isopropylphenyl)-N1-(2-methoxyethyl)azetidine-1,3-dicarboxamide]: the IC50 was 15 nM.

Regarding `CCOC(=O)CNC(=O)N1CC(C(=O)Nc2cnc(Cl)cc2OC)(c2ccccc2C(C)C)C1` [Example 22-11, ethyl (3-((6-chloro-4-methoxypyridin-3-yl)carbamoyl)-3-(2-isopropylphenyl)azetidine-1-carbonyl)glycinate], the IC50 came to 18 nM.

Take `COc1cc(Cl)ncc1NC(=O)C1(c2ccccc2C(C)C)CN(C(=O)NCC(=O)O)C1` [Example 22-12, (3-((6-chloro-4-methoxypyridin-3-yl)carbamoyl)-3-(2-isopropylphenyl)azetidine-1-carbonyl)glycine]: the IC50 worked out at 431 nM.

As to `CCOC(=O)CCNC(=O)N1CC(C(=O)Nc2cnc(Cl)cc2OC)(c2ccccc2C(C)C)C1` [Example 22-13, ethyl 3-(3-((6-chloro-4-methoxypyridin-3-yl)carbamoyl)-3-(2-isopropylphenyl)azetidine-1-carboxamido)propanoate], the IC50 is 7 nM.

For the compound `COc1cc(Cl)ncc1NC(=O)C1(c2ccccc2C(C)C)CN(C(=O)NCCC(=O)O)C1` [Example 22-14, 3-(3-((6-chloro-4-methoxypyridin-3-yl)carbamoyl)-3-(2-isopropylphenyl)azetidine-1-carboxamido)propanoic acid], the IC50 turned out to be 204 nM.

Take `COc1cc(Cl)ncc1NC(=O)C1(c2ccccc2C(C)C)CN(C(=O)N(C)C)C1` [Example 22-15, N^3-(6-chloro-4-methoxypyridin-3-yl)-3-(2-isopropylphenyl)-N1,N1-dimethylazetidine-1,3-dicarboxamide]: the IC50 was determined as 74 nM.

Turning to `COc1cc(Cl)ncc1NC(=O)C1(c2ccccc2C(C)C)CN(C(=O)N2CCOCC2)C1` [Example 22-16, N-(6-chloro-4-methoxypyridin-3-yl)-3-(2-isopropylphenyl)-1-(morpholine-4-carbonyl)azetidine-3-carboxamide], the IC50 was determined as 201 nM.

Turning to `COC(=O)N1CC(C(=O)Nc2cnc(Cl)cc2OC)(c2ccccc2C(C)C)C1` [Example 23-1, Methyl 3-((6-chloro-4-methoxypyridin-3-yl)carbamoyl)-3-(2-isopropylphenyl)azetidine-1-carboxylate], the 50% inhibitory concentration (IC50) was 6 nM.

For `COCCOC(=O)N1CC(C(=O)Nc2cnc(Cl)cc2OC)(c2ccccc2C(C)C)C1` [Example 23-2, 2-Methoxyethyl 3-((6-chloro-4-methoxypyridin-3-yl)carbamoyl)-3-(2-isopropylphenyl)azetidine-1-carboxylate], the IC50 turned out to be 69 nM.

Take `COc1cc(Cl)ncc1NC(=O)C1(c2ccccc2C(C)C)CN(c2ccncc2C)C1` [Example 24-1, N-(6-chloro-4-methoxypyridin-3-yl)-3-(2-isopropylphenyl)-1-(3-methylpyridin-4-yl)azetidine-3-carboxamide]: the concentration for half-maximal inhibition (IC50) came to 2 nM.

Regarding `COc1cc(Cl)ncc1NC(=O)C1(c2ccccc2C(C)C)CN(c2ccncc2F)C1` [Example 24-2, N-(6-chloro-4-methoxypyridin-3-yl)-1-(3-fluoropyridin-4-yl)-3-(2-isopropylphenyl)azetidine-3-carboxamide], the IC50 is 2 nM.
